Measurements taken from patent publication US20240059738A1, “SWITCHING PEPTIDE AND MULTIPLEX IMMUNOASSAY METHOD USING SAME” (OPTOLANE TECHNOLOGIES INC., priority 2021, published 2024).

Assays:
Anti-HRP antibody(r) = assay: Antigen-induced release of fluorescently labeled peptide from immobilized antibody (Table 2), HRP antigen; type: binding, rabbit; conditions: for remaining fluorescence intensity at plate bottom after antigen binding (% of before): anti-HRP antibodies from rabbits; for Bottom (B) of microplate Change (%) / fluorescence intensity Bottom (B) of microplate After antigen binding / fluorescence intensity Bottom (B) of microplate Before antigen binding / fluorescence intensity In solution (S) After antigen binding / fluorescence intensity In solution (S) Before antigen binding: anti-HRP antibody (rabbit), HRP
Anti-hCG antibody(m) = assay: Antigen-induced release of fluorescently labeled peptide from immobilized antibody (Table 2), hCG antigen; type: binding; conditions: anti-hCG antibody (mouse)
[1] = system: anti-HRP antibody from a rabbit; assay: One-step immunoassay with varying HRP concentration (FIGS. 7A-7C); type: binding; conditions: HRP 0.3 to 100 μM; for Kd: estimated, read-out: Equilibrium dissociation constants
Source text: FIG. 7A is a schematic diagram for explaining an immunoassay method using fluorescently labeled peptide compounds of Example 1, and FIGS. 7B and 7C are graphs illustrating the fluorescence intensities in a solution and at a bottom of the microplate depending on a concentration of the antigen measured by the immunoassay method illustrated in FIG. 7A. In this experiment, an anti-HRP antibody from a rabbit immobilized on a microplate was used as the binding antibody and HRP was used as the antigen.

[2] = system: rabbit anti-HRP antibodies (Fab region); assay: Papain treatment of immobilized antibody with bound fluorescently labeled switching peptide (FIG. 6B); type: binding; conditions: after papain treatment compared to before
Source text: FIG. 6A is a schematic diagram illustrating states before and after treatment of the antibody to which the four types of peptides of Example 1 were bound, respectively, with papain, which is a protease, and FIG. 6B is graphs illustrating a fluorescence intensity measured at a bottom (B) of the microplate and in a solution (S) after the papain treatment. In the case of this experiment, after immobilization of the antibodies (rabbit anti-HRP antibodies) on the microplate, binding between the antibody and the switching peptide was induced by treatment with a fluorescently labeled switching peptide, the unbound switching peptide was removed, and then the Fab region was hydrolyzed from the immobilized antibodies by adding papain, which is a protease.
Referring to FIG. 6A, the fluorescence at the bottom (B) of the microplate is expected to decrease after the papain reaction because the fluorescently labeled switching peptides are bound to the Fab region of antibodies, and the fluorescence in the solution is expected to increase because the Fab region to which the switching peptide is bound is hydrolyzed and dissolved into the solution. This prediction is proven to be true from the graphs of FIG. 6B.

HRP, CRP, HBsAg, and hCG = system: HRP, CRP, HBsAg, and hCG
Method: After immobilizing the hepatitis B surface antigen (HBsAg)-antibody detected using the immunoassay of the peptide compounds of Example 1 on a microplate, L1 peptide was added, and 0.04 to 30 μg/ml of the hepatitis B surface antigen was treated.

[3] = system: hepatitis B surface antigen-antibody; assay: Antibody binding properties (fluorescence signal) of switching peptides at pH 6.0 to 8.0
Method: (§1) Regarding the antibody binding properties of the switching peptides at pH 6.0 to 8.0, a net charge of H1 and L2 peptides decreased to 0.5 at pH 6.0 to 7.0 due to a histidine residue with a pKa value of 6.02. In addition, the net charge of the H2 and L2 peptides decreased to 0.5 at pH 7.0 to 8.0 due to a cysteine residue with a pKa value of 8.18. […] Therefore, the immunoassay was performed by selecting an L1 peptide having specific dissociation from hepatitis B surface antigen-antibody binding and stability within a pH range of human serum immunoassay.

H2 peptide = assay: FRET interaction between L1 and H2 peptides on microplate; type: binding; conditions: with increasing concentration of L1 peptide; FAM/TAMRA labels
Source text: FIG. 4A is diagrams illustrating a method for confirming a specific interaction between L1 and H2 peptides and a specific interaction between L2 and H1 peptides and the measurement results thereof, and FIG. 4B is diagrams for explaining a specific interaction between L1 and H2 peptides and a specific interaction between L2 and H1 peptides analyzed using PyMOL software. Here, at the ends of the L1 and L2 peptides, a first fluorescent label, FAM (λex=488 nm, λem=532 nm) was modified, and at the ends of the H1 and H2 peptides, a second fluorescent label, TAMRA λex=532 nm, λem=570 nm) was modified. Meanwhile, the first peptide (L1 or L2) was immobilized on a parylene-H-coated microplate through a covalent bond between a formyl group of parylene-H and a primary amine group of a lysine residue in the peptide, and the second peptide (H2 or H1) was incubated with the immobilized first peptide (L1 or L2) to allow specific interactions between them.
Referring to FIG. 4A, the interaction between the L1 and H2 peptides was observed by changing the concentration of the L1 peptide, and the FRET intensity increased with increasing the concentration of the L1 peptide.

Anti-CRP antibody(r) = assay: Antigen-induced release of fluorescently labeled peptide from immobilized antibody (Table 2), CRP antigen; type: binding; conditions: anti-CRP antibody (rabbit)
Anti-HBsAg antibody(g) = assay: Antigen-induced release of fluorescently labeled peptide from immobilized antibody (Table 2), HBsAg antigen; type: binding, goat; conditions: for fluorescence intensity remaining at bottom of plate after antigen (% of before): anti-HBsAg antibodies from goats; for Bottom (B) of microplate Change (%) / fluorescence intensity Bottom (B) of microplate After antigen binding / fluorescence intensity Bottom (B) of microplate Before antigen binding / fluorescence intensity In solution (S) After antigen binding / fluorescence intensity In solution (S) Before antigen binding: anti-HBsAg antibody (goat), HBsAg
[4] = Net charge of switching peptides at pH 6.0 to 8.0; type: physicochemical
Method: as §1

[5] = pH 7.0 to 8.0, cysteine residue pKa 8.18

Sequence | remaining fluorescence intensity at plate bottom after antigen binding (% of before) (Anti-HRP antibody(r)) [%] | Bottom (B) of microplate Change (%) (Anti-HRP antibody(r)) | fluorescence intensity Bottom (B) of microplate After antigen binding (Anti-HRP antibody(r)) | fluorescence intensity Bottom (B) of microplate Before antigen binding (Anti-HRP antibody(r)) | fluorescence intensity In solution (S) After antigen binding (Anti-HRP antibody(r)) | fluorescence intensity In solution (S) Before antigen binding (Anti-HRP antibody(r)) | Bottom (B) of microplate Change (%) (Anti-hCG antibody(m)) | In solution (S) Change (%) (Anti-hCG antibody(m)) | fluorescence intensity Bottom (B) of microplate After antigen binding (Anti-hCG antibody(m)) | fluorescence intensity Bottom (B) of microplate Before antigen binding (Anti-hCG antibody(m)) | fluorescence intensity In solution (S) After antigen binding (Anti-hCG antibody(m)) | fluorescence intensity In solution (S) Before antigen binding (Anti-hCG antibody(m)) | fluorescence intensity in the solution depending on the concentration of the antigen (HRP) [1] | Kd [1] [µM] | decrease of fluorescence intensity at the bottom of the microplate [2] [%] | increase of fluorescence intensity in the solution [2] | Bottom (B) of microplate Change (%) (Anti-CRP antibody(r)) | In solution (S) Change (%) (Anti-CRP antibody(r)) | fluorescence intensity Bottom (B) of microplate After antigen binding (Anti-CRP antibody(r)) | fluorescence intensity Bottom (B) of microplate Before antigen binding (Anti-CRP antibody(r)) | also measured
TYLEWYPQKPGQSPKLLIYK [L1, TYLEW YPQKP GQSPK LLIYK] | 12.7 | −87.3 | 1990 | 15608 | 12280 | 2687 | −61.6 | +187% | 1777 | 4630 | 3580 | 1248 | increase | 3.29 | 84.8 | 1,032% | −48.6 | +778% | 3456 | 6719 | selectivity among the four antigens (HRP, CRP, HBsAg, and hCG): highest selectivity; fluorescence signal in pH range required for immunoassay of HBsAg in human serum [3]: almost the same fluorescence signal; FRET intensity (H2 peptide): increased; fluorescence intensity In solution (S) After antigen binding (Anti-CRP antibody(r)): 6505; fluorescence intensity In solution (S) Before antigen binding (Anti-CRP antibody(r)): 741; fluorescence intensity remaining at bottom of plate after antigen (% of before) (Anti-HBsAg antibody(g)): 48.7%; Bottom (B) of microplate Change (%) (Anti-HBsAg antibody(g)): −51.3%; fluorescence intensity Bottom (B) of microplate After antigen binding (Anti-HBsAg antibody(g)): 5388; fluorescence intensity Bottom (B) of microplate Before antigen binding (Anti-HBsAg antibody(g)): 11062; fluorescence intensity In solution (S) After antigen binding (Anti-HBsAg antibody(g)): 20501; fluorescence intensity In solution (S) Before antigen binding (Anti-HBsAg antibody(g)): 2779
VYYCAREPTGTGIYFDVWGK [H2, VYYCA REPTG TGIYF DVWGK] | 14.8 | −85.2 | 1806 | 122230 | 18128 | 2272 | −88.5 | +416% | 23320 | 23320 | 8545 | 1654 | increase | 3.11 | 58.7 | 2,356% | −39.5 | +677% | 22205 | 22205 | net charge [4, 5]: 0.5; fluorescence intensity In solution (S) After antigen binding (Anti-CRP antibody(r)): 16311; fluorescence intensity In solution (S) Before antigen binding (Anti-CRP antibody(r)): 2099; fluorescence intensity remaining at bottom of plate after antigen (% of before) (Anti-HBsAg antibody(g)): 63.9%; Bottom (B) of microplate Change (%) (Anti-HBsAg antibody(g)): −36.1%; fluorescence intensity Bottom (B) of microplate After antigen binding (Anti-HBsAg antibody(g)): 18773; fluorescence intensity Bottom (B) of microplate Before antigen binding (Anti-HBsAg antibody(g)): 29367; fluorescence intensity In solution (S) After antigen binding (Anti-HBsAg antibody(g)): 9136; fluorescence intensity In solution (S) Before antigen binding (Anti-HBsAg antibody(g)): 1784
VYYCFQGSHVPFTK [L2, VYYCF QGSHV PFTK] | 25.5 | −74.5 | 3208 | 12584 | 16135 | 2315 | −90.7 | +456% | 3072 | 33156 | 9402 | 1692 | increase | 1.48 | 72.5 | 2,452% | −44.9 | +883% | 11236 | 20394 | net charge ([4]; pH 6.0 to 7.0, histidine residue pKa 6.02): 0.5; net charge [4, 5]: 0.5; fluorescence intensity In solution (S) After antigen binding (Anti-CRP antibody(r)): 32187; fluorescence intensity In solution (S) Before antigen binding (Anti-CRP antibody(r)): 3274; fluorescence intensity remaining at bottom of plate after antigen (% of before) (Anti-HBsAg antibody(g)): 35.2%; Bottom (B) of microplate Change (%) (Anti-HBsAg antibody(g)): −64.8%; fluorescence intensity Bottom (B) of microplate After antigen binding (Anti-HBsAg antibody(g)): 9856; fluorescence intensity Bottom (B) of microplate Before antigen binding (Anti-HBsAg antibody(g)): 28002; fluorescence intensity In solution (S) After antigen binding (Anti-HBsAg antibody(g)): 15359; fluorescence intensity In solution (S) Before antigen binding (Anti-HBsAg antibody(g)): 2279
